Measured values: patent US10149809B2, “Skin aging inhibitor and concentrate of resveratrol 3-O-α-glucoside” (priority 2014, dated 2018)

Columns and labels:
sirtuin 1 gene = assay: Sirtuin 1 gene expression-promoting effect (2); assay type: cell-based; details: normal human epidermal keratinocytes, 0.001 wt %, 33 hours, medium without hydrocortisone; control = 100%
Description: Normal human epidermal keratinocytes were seeded into 12-well culture plates at 5×10^4 cells per well. As the medium, EpiLife KG-2 medium supplemented with insulin, hEGF, hydrocortisone, anti-microbial agents, and BPE was used (basal medium), and the cells were preincubated in 5% CO2 at 37° C. for 48 hours. The medium was removed, and then replaced with a sample medium obtained by removing hydrocortisone from the above-described basal medium, and by supplementing the resulting medium with resveratrol 3-O-α-glucoside to a concentration of 0.001 wt %, and the cells were cultured in 5% CO2 at 37° C. For comparison, the cells were cultured under the same conditions as described above, except that resveratrol 3-O-α-glucoside in the sample medium was replaced by resveratrol 3-O-β-glucoside. After 33 hours of culture, total RNA was extracted from the cells, and the level of expression of the sirtuin 1 gene was quantified by real time PCR. As a control group, cells were cultured without resveratrol 3-O-α-glucoside or resveratrol 3-O-β-glucoside, and total RNA collected from these cells was used. Taking as 100% the level of expression of the sirtuin 1 gene for the control group, a relative ratio of the expression level of the sirtuin 1 gene for the resveratrol 3-O-α-glucoside- or resveratrol 3-O-β-glucoside-supplemented group (SIRT 1 gene expression ratio, %) was determined. […]

[1] = Absorption when orally ingested: converted resveratrol concentration in plasma; assay type: in vivo, human
Description: Blood concentrations of resveratrol metabolites when resveratrol 3-O-α-glucoside and resveratrol 3-O-β-glucoside were orally ingested were examined, and the absorption properties of resveratrol 3-O-α-glucoside and resveratrol 3-O-β-glucoside were compared.
To 100 mL of water, 86 mg of resveratrol 3-O-α-glucoside or resveratrol 3-O-β-glucoside (Tokyo Chemical Industry Co., Ltd.) was added, and the mixture was stirred for 1 minute. The resulting solution was orally ingested by a subject at a time. Blood was collected prior to, 30 minutes after, and 1, 2, 3, and 4 hours after the ingestion, and the plasma was separated by centrifugation. The test was performed three times for each of the samples. In order to quantify the amount of resveratrol derivatives in the collected plasma samples, 10 μL of β-glucronidase Type H-2 from Sigma-Aldrich Co. LLC. (glucuronidase activity: 115003 units/mL, sulfatase activity: 556 units/mL; a 5-fold diluted solution in a 100 mM acetate buffer solution (pH 5.5)) was added to 10 μL of the collected plasma, and enzyme treatment was performed at 37° C. for about 18 hours. After the reaction, 80 μL of 60% acetonitrile was added, and subsequently 100 μL of water was further added thereto, and the mixture was stirred. The filtrate obtained by filtering through a membrane (0.45 μm) was subjected to HPLC analysis. A converted resveratrol concentration was determined by converting the concentration of resveratrol derivatives in each of the plasma samples into the concentration of resveratrol, and maximum blood concentrations and areas under the curve (AUCs) 0 to 4 hours after the ingestion were determined.

[2] = test system: skin model (MEL-312B; MatTek); assay: Melanogenesis suppressing effect in skin model (amount of melanin, visual observation); assay type: cell-based; details: 16 days; for Relative Amount of Melanin: PBS control group = 100%; for Visual Observation: compared with PBS control group
Description: Resveratrol 3-O-α-glucoside, resveratrol (Tokyo Chemical Industry Co., Ltd.), or resveratrol 3-O-β-glucoside (Tokyo Chemical Industry Co., Ltd.) was prepared into a 0.2 wt % solution or suspension with the addition of PBS, and the resulting solution or suspension was used as a test substance. A skin model (MEL-312B; MatTek) was used, and 50 μL of the test substance was added to the horny layer side of the skin model and cultured in a special medium (EPI-100NMM-113; MatTek) at 37° C. for 16 days. On days 2, 4, 7, 9, 11, and 14, the medium and the test substance were replaced with fresh ones. As a control group, the same operation was performed using PBS instead of the test substance.
After 16 days of culture, the skin model was visually observed, and the amount of melanin in the skin model was evaluated. The amount of melanin was measured using the following method. Initially, the collected skin model was subjected to enzymatic degradation by proteinase-K, and was subsequently homogenated in PBS containing 1% triton X-100. Melanin was then extracted by washing with 10% TCA and ethanol. Next, the extracted melanin was dissolved in 0.5 mL of 1N-NaOH containing 10% DMSO at 80° C. for 2 hours, and the amount of melanin was quantified by measuring absorbance at 470 nm.
Resveratrol 3-O-α-glucoside was prepared into a 0.2 wt % solution, a 0.1 wt % solution, or a 0.01 wt % solution with the addition of PBS. The resulting solution was used as a test substance, and the melanogenesis suppressing effect was evaluated using the same method as that of Example 1 above. […]

[3] = Solubility in solvent containing 1,2-hexanediol; assay type: physicochemical
Description: (§1) Approximately 40 mg each of resveratrol 3-O-α-glucoside, resveratrol (Tokyo Chemical Industry Co., Ltd.), and resveratrol 3-O-β-glucoside (Tokyo Chemical Industry Co., Ltd.) was weighed, approximately 70 mg of a solvent (whose composition is shown in Table 18) containing ethanol (Wako Pure Chemical Industries, Ltd.) was added thereto, and the mixture was soaked in a water bath at 25° C. under light-tight conditions, and incubated for 15 hours with occasional stirring. After 15 hours, each of the samples was filtered through a 0.45 μm centrifugal filter, and then the concentration of each of the components in the filtrate was analyzed using HPLC under the same conditions as those described in Production Example 1 above. The dissolved concentration (w/v %) at 25° C. was thus determined.
The solubility of resveratrol 3-O-α-glucoside was evaluated under the same conditions as those described in Example 18 above, except that a solvent (whose composition is shown in Table 24) containing 1,2-hexanediol (Kankosha Co., Ltd.) was used.

[4] = Solubility in solvent containing propylene glycol; assay type: physicochemical
Description: as §1
The solubility of resveratrol 3-O-α-glucoside was evaluated under the same conditions as those described in Example 18 above, except that a solvent (whose composition is shown in Table 20) containing propylene glycol (Wako Pure Chemical Industries, Ltd.) was used.

[5] = Solubility in solvent containing 1,3-butylene glycol; assay type: physicochemical
Description: as §1
The solubility of resveratrol 3-O-α-glucoside was evaluated under the same conditions as those described in Example 18 above, except that a solvent (whose composition is shown in Table 21) containing 1,3-butylene glycol (Wako Pure Chemical Industries, Ltd.) was used.

For OC[C@H]1O[C@H](Oc2cc(O)cc(C=Cc3ccc(O)cc3)c2)[C@H](O)[C@@H](O)[C@@H]1O [Resveratrol 3-O-α-Glucoside, resveratrol 3-O-α-glucoside], the “SIRT 1 Gene Expression Ratio (%)” value (sirtuin 1 gene) was 141%, the “AUC relative to resveratrol 3-O-β-glucoside” value ([1]; human, in vivo, po, 86 mg) was 2.8 times and the “Relative Amount of Melanin” value ([2]; 0.01 wt % in PBS) was 88%. The “Visual Observation” value ([2]; 0.01 wt % in PBS) was “slightly whiter than the”, the “Relative Amount of Melanin” value ([2]; 0.1 wt % in PBS) was 67% and the “Relative Amount of Melanin” value ([2]; 0.2 wt % in PBS, 50 μL) was 46%. For the same compound, the dissolved concentration [3] was “exceeded 25 w/v %”, the dissolved concentration [4] was “exceeded 30 w/v %” and the “Dissolved Concentration (w/v %) at 25° C.” value ([4]; 15 h) was 0.3 w/v %. For the same compound, the dissolved concentration [5] was “exceeded 20 w/v %”.

In the case of OC[C@H]1O[C@@H](Oc2cc(O)cc(/C=C/c3ccc(O)cc3)c2)[C@H](O)[C@@H](O)[C@@H]1O [Resveratrol 3-O-β-Glucoside, resveratrol 3-O-β-glucoside], the “SIRT 1 Gene Expression Ratio (%)” value (sirtuin 1 gene) is reported as 120%, the “Maximum Plasma Concentration” value ([1]; 86 mg in 100 mL water orally, one subject, three tests, converted resveratrol concentration after glucuronidase/sulfatase treatment) is reported as 282 ng/mL and the “Area under the Curve ((mg/L) · Hr)” value ([1]; 86 mg orally, 0 to 4 hours after ingestion, converted resveratrol concentration) is reported as 0.9 (mg/L) · Hr. For the same compound, the “Visual Observation” value ([2]; 0.2 wt % in PBS, 50 μL to horny layer side) was “the same as the control”, the “Relative Amount of Melanin” value ([2]; 0.2 wt % in PBS, 50 μL) was 79% and the “Dissolved Concentration (w/v %) at 25° C.” value ([3]; 1,2-Hexanediol:Water 0:100 (weight ratio)) was 0.04 w/v %. For the same compound, the “Dissolved Concentration (w/v %) at 25° C.” value ([3]; 1,2-Hexanediol:Water 5:95 (weight ratio)) was 0.1 w/v %, the “Dissolved Concentration (w/v %) at 25° C.” value ([3]; 1,2-Hexanediol:Water 10:90 (weight ratio)) was 0.5 w/v % and the “Dissolved Concentration (w/v %) at 25° C.” value ([3]; 1,2-Hexanediol:Water 25:75 (weight ratio)) was 2.6 w/v %. The “Dissolved Concentration (w/v %) at 25° C.” value ([3]; 1,2-Hexanediol:Water 50:50 (weight ratio)) was 6.5 w/v %, the “Dissolved Concentration (w/v %) at 25° C.” value ([3]; 1,2-Hexanediol:Water 75:25 (weight ratio)) was 7.9 w/v % and the “Dissolved Concentration (w/v %) at 25° C.” value ([3]; 1,2-Hexanediol:Water 90:10 (weight ratio)) was 10.7 w/v %. For the same compound, the “Dissolved Concentration (w/v %) at 25° C.” value ([3]; 1,2-Hexanediol:Water 100:0 (weight ratio)) was 3.2 w/v %, the “Dissolved Concentration (w/v %) at 25° C.” value ([4]; Propylene Glycol:Water 0:100 (weight ratio)) was 0.04 w/v % and the “Dissolved Concentration (w/v %) at 25° C.” value ([4]; Propylene Glycol:Water 5:95 (weight ratio)) was 0.04 w/v %. The “Dissolved Concentration (w/v %) at 25° C.” value ([4]; Propylene Glycol:Water 10:90 (weight ratio)) was 0.06 w/v %, the “Dissolved Concentration (w/v %) at 25° C.” value ([4]; Propylene Glycol:Water 15:85 (weight ratio)) was 0.09 w/v % and the “Dissolved Concentration (w/v %) at 25° C.” value ([4]; Propylene Glycol:Water 20:80 (weight ratio)) was 0.1 w/v %. The “Dissolved Concentration (w/v %) at 25° C.” value ([4]; Propylene Glycol:Water 25:75 (weight ratio)) was 0.2 w/v %, the “Dissolved Concentration (w/v %) at 25° C.” value ([4]; Propylene Glycol:Water 50:50 (weight ratio)) was 3.3 w/v % and the “Dissolved Concentration (w/v %) at 25° C.” value ([4]; Propylene Glycol:Water 75:25 (weight ratio)) was 11.5 w/v %. The “Dissolved Concentration (w/v %) at 25° C.” value ([4]; Propylene Glycol:Water 90:10 (weight ratio)) was 12.5 w/v %, the “Dissolved Concentration (w/v %) at 25° C.” value ([4]; Propylene Glycol:Water 100:0 (weight ratio)) was 11.3 w/v % and the “Dissolved Concentration (w/v %) at 25° C.” value ([5]; 1,3-Butylene Glycol:Water 0:100 (weight ratio)) was 0.04 w/v %. For the same compound, the “Dissolved Concentration (w/v %) at 25° C.” value ([5]; 1,3-Butylene Glycol:Water 5:95 (weight ratio)) was 0.04 w/v %, the “Dissolved Concentration (w/v %) at 25° C.” value ([5]; 1,3-Butylene Glycol:Water 10:90 (weight ratio)) was 0.07 w/v % and the “Dissolved Concentration (w/v %) at 25° C.” value ([5]; 1,3-Butylene Glycol:Water 15:85 (weight ratio)) was 0.1 w/v %. The “Dissolved Concentration (w/v %) at 25° C.” value ([5]; 1,3-Butylene Glycol:Water 20:80 (weight ratio)) was 0.2 w/v %, the “Dissolved Concentration (w/v %) at 25° C.” value ([5]; 1,3-Butylene Glycol:Water 25:75 (weight ratio)) was 0.3 w/v % and the “Dissolved Concentration (w/v %) at 25° C.” value ([5]; 1,3-Butylene Glycol:Water 50:50 (weight ratio)) was 2.8 w/v %. The “Dissolved Concentration (w/v %) at 25° C.” value ([5]; 1,3-Butylene Glycol:Water 75:25 (weight ratio)) was 7.5 w/v %, the “Dissolved Concentration (w/v %) at 25° C.” value ([5]; 1,3-Butylene Glycol:Water 90:10 (weight ratio)) was 9.7 w/v % and the “Dissolved Concentration (w/v %) at 25° C.” value ([5]; 1,3-Butylene Glycol:Water 100:0 (weight ratio)) was 7.2 w/v %.
